# In patent US20190031676A1, “ANTIBACTERIAL ANNULATED PYRROLIDIN-2-ONE DERIVATIVES” (priority 2015, published 2019):
# What was measured:
# Experiment in all cases: Bacterial growth minimal inhibitory concentration (microdilution, cation-adjusted Mueller-Hinton Broth)
# Assay type in all cases: cell-based
# E. coli ATCC25922 = conditions: quinolone-sensitive strain; for MIC: Escherichia coli, ATCC25922
# Experimental: (§1) Minimal Inhibitory Concentrations (MICs; mg/L) were determined in cation-adjusted Mueller-Hinton Broth by a microdilution method following the description given in “Methods for Dilution Antimicrobial Susceptibility Tests for Bacteria that grow Aerobically”, Approved standard, 7th ed., Clinical and Laboratory Standards Institute (CLSI) Document M7-A7, Wayne, Pa., USA (2006).
# (§2) All Example compounds were tested against several Gram-positive and Gram-negative bacteria. […] K. pneumoniae A-651 is a multiply-resistant strain (in particular quinolone-resistant), while E. coli ATCC25922 and P. aeruginosa ATCC27853 are quinolone-sensitive strains.
# K. pneumoniae A-651 = conditions: multiply-resistant strain (in particular quinolone-resistant); for MIC: Klebsiella pneumoniae, A651
# Experimental: as §1, §2
# P. aeruginosa ATCC27853 = conditions: quinolone-sensitive strain; for MIC: Pseudomonas aeruginosa, ATCC27853
# Experimental: as §1, §2
Structure (SMILES),MIC (E. coli ATCC25922) [µg/mL],MIC (K. pneumoniae A-651) [µg/mL],MIC (P. aeruginosa ATCC27853) [µg/mL],MIC for E. coli ATCC25922 (E. coli ATCC25922) [µg/mL],MIC for K. Pneumoniae A-651 (K. pneumoniae A-651) [µg/mL],MIC for P. aeruginosa ATCC27853 (P. aeruginosa ATCC27853) [µg/mL]
"CC(C)(CO)c1ccc(C#Cc2cc3c(s2)C(=O)N(CCC(C)(C(=O)NO)S(C)(=O)=O)C3)cc1 (racemic) [Reference Example 1, (2RS)—N-hydroxy-4-(2-((4-(1-hydroxy-2-methylpropan-2-yl)phenyl)ethynyl)-6-oxo-4,6-dihydro-5H-thieno[2,3-c]pyrrol-5-yl)-2-methyl-2-(methylsulfonyl)butanamide]",0.25,1,2,,,
"CC(CCN1Cc2cc(C#CC#CC3(CO)CC3)sc2C1=O)(C(=O)NO)S(C)(=O)=O (racemic) [Reference Example 2, (2RS)—N-hydroxy-4-(2-((1-(hydroxymethyl)cyclopropyl)buta-1,3-diyn-1-yl)-6-oxo-4,6-dihydro-5H-thieno[2,3-c]pyrrol-5-yl)-2-methyl-2-(methylsulfonyl)butanamide]",1,2,2,,,
"C[C@@](CCN1Cc2cc(C#CC#C[C@@H]3C[C@H]3CO)sc2C1=O)(C(=O)NO)S(C)(=O)=O (single isomer, unassigned) [Example 1]",0.125,0.25,0.5,,,
"C[C@@](CCN1Cc2cc(C#CC#CC3CN([C@@H]4CCOC4)C3)sc2C1=O)(C(=O)NO)S(C)(=O)=O (single isomer, unassigned) [Example 37]",0.5,0.5,1,,,
"C[C@@](CCN1Cc2cc(C#CC#CC3CN([C@H]4CCOC4)C3)sc2C1=O)(C(=O)NO)S(C)(=O)=O (single isomer, unassigned) [Example 38]",0.25,0.25,1,,,
"COc1ccc(-c2cc3c(s2)C(=O)N(CC[C@](C)(C(=O)NO)S(C)(=O)=O)C3)c(F)c1 [Example 2, (2R)-4-(2-(2-fluoro-4-methoxyphenyl)-6-oxo-4,6-dihydro-5H-thieno[2,3-c]pyrrol-5-yl)-N-hydroxy-2-methyl-2-(methylsulfonyl)butanamide]",≤ 0.063,0.25,2,,,
"C[C@@](CCN1Cc2cc(C#CC#CC3(N)CC3)sc2C1=O)(C(=O)NO)S(C)(=O)=O [Example 3, (2R)-4-(2-((1-aminocyclopropyl)buta-1,3-diyn-1-yl)-6-oxo-4,6-dihydro-5H-thieno[2,3-c]pyrrol-5-yl)-N-hydroxy-2-methyl-2-(methylsulfonyl)butanamide]",0.25,0.5,1,,,
"CNC1(C#CC#Cc2cc3c(s2)C(=O)N(CC[C@](C)(C(=O)NO)S(C)(=O)=O)C3)CC1 [Example 5, (2R)—N-hydroxy-2-methyl-4-(2-((1-(methylamino)cyclopropyl)buta-1,3-diyn-1-yl)-6-oxo-4,6-dihydro-5H-thieno[2,3-c]pyrrol-5-yl)-2-(methylsulfonyl)butanamide]",0.125,0.25,1,,,
"C[C@@](CCN1Cc2cc(C#CC#CCOC(=O)N3CC(O)C3)sc2C1=O)(C(=O)NO)S(C)(=O)=O [Example 6, (3R)-5-(5-(4-(hydroxyamino)-3-methyl-3-(methylsulfonyl)-4-oxobutyl)-6-oxo-5,6-dihydro-4H-thieno[2,3-c]pyrrol-2-yl)penta-2,4-diyn-1-yl 3-hydroxyazetidine-1-carboxylate]",1,1,2,,,
"CNC1(C#CC#Cc2ccc3c(c2)CN(CC[C@](C)(C(=O)NO)S(C)(=O)=O)C3=O)CC1 [Example 7, (2R)—N-hydroxy-2-methyl-4-(5-((1-(methylamino)cyclopropyl)buta-1,3-diyn-1-yl)-1-oxoisoindolin-2-yl)-2-(methylsulfonyl)butanamide]",0.25,1,2,,,
"CN1CC(C#CC#Cc2ccc3c(c2)CN(CC[C@](C)(C(=O)NO)S(C)(=O)=O)C3=O)C1 [Example 8, (2R)—N-hydroxy-2-methyl-4-(5-((1-methylazetidin-3-yl)buta-1,3-diyn-1-yl)-1-oxoisoindolin-2-yl)-2-(methylsulfonyl)butanamide]",1,2,1,,,
"C[C@@](CCN1Cc2cc(C#CC#CCOC(=O)N3CC(O)C3)ccc2C1=O)(C(=O)NO)S(C)(=O)=O [Example 9, (3R)-5-(2-(4-(hydroxyamino)-3-methyl-3-(methylsulfonyl)-4-oxobutyl)-1-oxoisoindolin-5-yl)penta-2,4-diyn-1-yl 3-hydroxyazetidine-1-carboxylate]",1,1,2,,,
"COc1ccc(-c2ccc3c(c2)CN(CC[C@](C)(C(=O)NO)S(C)(=O)=O)C3=O)c(F)c1 [Example 10, (2R)-4-(5-(2-fluoro-4-methoxyphenyl)-1-oxoisoindolin-2-yl)-N-hydroxy-2-methyl-2-(methylsulfonyl)butanamide]",0.125,0.063,8,,,
"CN1CC(C#CC#Cc2cc3c(s2)C(=O)N(CC[C@](C)(C(=O)NO)S(C)(=O)=O)C3)C1 [Example 11, (2R)—N-hydroxy-2-methyl-4-(2-((1-methylazetidin-3-yl)buta-1,3-diyn-1-yl)-6-oxo-4,6-dihydro-5H-thieno[2,3-c]pyrrol-5-yl)-2-(methylsulfonyl)butanamide]",0.25,1,0.5,,,
"C[C@@](CCN1Cc2cc(C#CC#CC3(CO)CC3)ccc2C1=O)(C(=O)NO)S(C)(=O)=O [Example 12, (2R)—N-hydroxy-4-(5-((1-(hydroxymethyl)cyclopropyl)buta-1,3-diyn-1-yl)-1-oxoisoindolin-2-yl)-2-methyl-2-(methylsulfonyl)butanamide]",0.031,0.25,2,,,
"C[C@@](CCN1Cc2cc(C#CC#CC3(N)CC3)ccc2C1=O)(C(=O)NO)S(C)(=O)=O [Example 13, (2R)-4-(5-((1-aminocyclopropyl)buta-1,3-diyn-1-yl)-1-oxoisoindolin-2-yl)-N-hydroxy-2-methyl-2-(methylsulfonyl)butanamide]",0.5,1,1,,,
"C[C@@](CCN1Cc2cc(C#Cc3ccc(CN4CC(F)C4)cc3)sc2C1=O)(C(=O)NO)S(C)(=O)=O [Example 14, (2R)-4-(2-((4-((3-fluoroazetidin-1-yl)methyl)phenyl)ethynyl)-6-oxo-4,6-dihydro-5H-thieno[2,3-c]pyrrol-5-yl)-N-hydroxy-2-methyl-2-(methylsulfonyl)butanamide]",0.031,0.25,2,,,
"C[C@@](CCN1Cc2cc(C#CC#CC3CN(C4COC4)C3)sc2C1=O)(C(=O)NO)S(C)(=O)=O [Example 15, (2R)—N-hydroxy-2-methyl-2-(methylsulfonyl)-4-(2-((1-(oxetan-3-yl)azetidin-3-yl)buta-1,3-diyn-1-yl)-6-oxo-4,6-dihydro-5H-thieno[2,3-c]pyrrol-5-yl)butanamide]",0.5,4,4,,,
"C[C@@](CCN1Cc2cc(C#CC#CC3CN(CCO)C3)sc2C1=O)(C(=O)NO)S(C)(=O)=O [Example 17, (2R)—N-hydroxy-4-(2-((1-(2-hydroxyethyl)azetidin-3-yl)buta-1,3-diyn-1-yl)-6-oxo-4,6-dihydro-5H-thieno[2,3-c]pyrrol-5-yl)-2-methyl-2-(methylsulfonyl)butanamide]",0.5,2,1,,,
"C[C@@](CCN1Cc2cc(C#CC#C[C@H]3C[C@]3(F)CO)ccc2C1=O)(C(=O)NO)S(C)(=O)=O [Example 18, (2R)-4-(5-(((1R,2R)-2-fluoro-2-(hydroxymethyl)cyclopropyl)buta-1,3-diyn-1-yl)-1-oxoisoindolin-2-yl)-N-hydroxy-2-methyl-2-(methylsulfonyl)butanamide]",0.5,2,1,,,
"C[C@@](CCN1Cc2cc(C#CC#C[C@H]3C[C@@H]3CO)sc2C1=O)(C(=O)NO)S(C)(=O)=O [Example 19, (2R)—N-hydroxy-4-(2-(((1S,2S)-2-(hydroxymethyl)cyclopropyl)buta-1,3-diyn-1-yl)-6-oxo-4,6-dihydro-5H-thieno[2,3-c]pyrrol-5-yl)-2-methyl-2-(methylsulfonyl)butanamide]",0.125,0.25,0.5,,,
"CN(C)CC(=O)OC[C@H]1C[C@@H]1C#CC#Cc1cc2c(s1)C(=O)N(CC[C@](C)(C(=O)NO)S(C)(=O)=O)C2 [Example 20, ((1S,2S)-2-((5-((3R)-4-(hydroxyamino)-3-methyl-3-(methylsulfonyl)-4-oxobutyl)-6-oxo-5,6-dihydro-4H-thieno[2,3-c]pyrrol-2-yl)buta-1,3-diyn-1-yl)cyclopropyl)methyl dimethylglycinate]",0.125,0.25,1,,,
"C[C@@](CCN1Cc2cc(C#CC#C[C@@H]3C[C@@H](O)[C@@H](O)C3)sc2C1=O)(C(=O)NO)S(C)(=O)=O [Example 21, (2R)-4-(2-(((1S,3R,4S)-3,4-dihydroxycyclopentyl)buta-1,3-diyn-1-yl)-6-oxo-4,6-dihydro-5H-thieno[2,3-c]pyrrol-5-yl)-N-hydroxy-2-methyl-2-(methylsulfonyl)butanamide]",,,,0.5,2,1
"C[C@@](CCN1Cc2cc(C#CC#C[C@H]3C[C@@H]3[C@@H](O)CO)sc2C1=O)(C(=O)NO)S(C)(=O)=O [Example 22, (2R)-4-(2-(((1S,2S)-2-((2R)-1,2-dihydroxyethyl)cyclopropyl)buta-1,3-diyn-1-yl)-6-oxo-4,6-dihydro-5H-thieno[2,3-c]pyrrol-5-yl)-N-hydroxy-2-methyl-2-(methylsulfonyl)butanamide]",,,,0.5,1,1
